Test system: hESCs
Assay: Microarray analysis of hESCs grown 36 h in CDM alone or CDM plus BMP4
Type: cell-based, human
Details: hESCs 36 h, CDM plus 10 ng/ml BMP4 vs CDM alone
From the text: The change in RNA expression of genes associated with particular cell types is indicated in the following panels. […] In all tables, the ‘margin’ value represents the fold change in mRNA expression (log 2 scale) with a negative value indicating down regulation after BMP4 treatment compared to CDM alone.
Sample RNA was hybridized to Affymetrix hg-u133+2 GeneChips ©. All sample arrays were background corrected, normalized and summarized using default parameters of the RMA model. Array processing was performed using the affy package of the Bioconductor (found on the world wide web at the hypertext protocol transfer address of “bioconductor.org”) suite of software for the R statistical programming language (found on the world wide web at the hypertext protocol transfer address of “r-project.org”). The resulting data set contained processed gene expression values for 54675 probe-sets. Analysis of Differential Regulation: The moderated t-statistic […], implemented in the Limma package of Bioconductor, was employed to assess the significance of differential gene (probe-set) expression between sample groups. In order to reduce errors associated with multiple hypothesis testing on such a scale, the significance p-values obtained were converted to corrected q-values using the FDR method.
Data Visualisation: Heat maps of gene expression were created by importing relevant subsets of RMA processed microarray gene expression data into the dChip v1.3 microarray analysis package (found on the world wide web at the hypertext protocol transfer address of “biostat.harvard.edu/complab/dchip/”). In the case wherein a gene is represented by more than one probe-set on the array, a single probe-set was chosen to represent gene expression in the heat map according to highest mean expression over all samples (i.e. the most reliable sample hybridization regardless of group membership).

BMP4: Bone Morphogenetic Protein 4 growth factor
Margin, ACTC mRNA: 4.16 log 2 scale | Margin, ADRA2A mRNA: −2.49 log 2 scale | Margin, AGTRL1 mRNA: 4.35 log 2 scale | Margin, AK3 mRNA: −2.55 log 2 scale | Margin, ARGBP2 mRNA: −3.43 log 2 scale | Margin, BAMBI mRNA: 3.86 log 2 scale | Margin, C2orf31 mRNA: −2.72 log 2 scale | Margin, C10orf13 mRNA: −2.63 log 2 scale | Margin, C14orf29 mRNA: −2.44 log 2 scale | Margin, CACNA2D3 mRNA: −2.42 log 2 scale | Margin, CDH11 mRNA: 3.81 log 2 scale | Margin, CFC1 mRNA: 4.45 log 2 scale | Margin, CHST9 mRNA: −2.54 log 2 scale | Margin, CLIC5 mRNA: 5.04 log 2 scale | Margin, COL3A1 mRNA: 4.47 log 2 scale | Margin, CRH mRNA: 5.13 log 2 scale | Margin, CUZD1 mRNA: −2.4 log 2 scale | Margin, CYP26A1 mRNA: −2.51 log 2 scale | Margin, D21S2088E mRNA: −2.67 log 2 scale | Margin, DIO2 mRNA: 4.29 log 2 scale | Margin, DKK4 mRNA: −3.09 log 2 scale | Margin, DLX2 mRNA: 6.43 log 2 scale | Margin, DLX5 mRNA: 4.04 log 2 scale | Margin, DLX6 mRNA: 4.66 log 2 scale | Margin, EFNA1 mRNA: 4.35 log 2 scale | Margin, EPAS1 mRNA: 6.2 log 2 scale | Margin, ETV1 mRNA: −2.49 log 2 scale | Margin, FLJ25477 mRNA: 4.77 log 2 scale | Margin, FLJ90231 mRNA: −3.15 log 2 scale | Margin, FOXA2 mRNA (splice variant): −3.38 log 2 scale | Margin, FOXF1 mRNA: 4.84 log 2 scale | Margin, GABRP mRNA: 7.34 log 2 scale | Margin, GATA3 mRNA: 6.21 log 2 scale | Margin, GATA5 mRNA: 4 log 2 scale | Margin, GDF3 mRNA: −3.47 log 2 scale | Margin, GPR64 mRNA: −2.46 log 2 scale | Margin, H19 mRNA: 3.98 log 2 scale | Margin, HAND1 mRNA: 7.27 log 2 scale | Margin, HAPLN1 mRNA: 8.04 log 2 scale | Margin, HESX1 mRNA: −2.36 log 2 scale | Margin, HEY1 mRNA: 3.93 log 2 scale | Margin, HHEX mRNA: −2.58 log 2 scale | Margin, HOXB6 mRNA: 5.19 log 2 scale | Margin, ID4 mRNA: 5.47 log 2 scale | Margin, IGFBP3 mRNA: 4.44 log 2 scale | Margin, IPO9 mRNA: −2.83 log 2 scale | Margin, ISL1 mRNA: 6.5 log 2 scale | Margin, KAL1 mRNA: −2.98 log 2 scale | Margin, KCND2 mRNA: −2.74 log 2 scale | Margin, KCTD12 mRNA: 4.01 log 2 scale | Margin, KIAA0882 mRNA: 3.81 log 2 scale | Margin, KLF4 mRNA: −2.4 log 2 scale | Margin, KRT7 mRNA: 3.91 log 2 scale | Margin, LCK mRNA: −2.65 log 2 scale | Margin, LECT1 mRNA: −2.55 log 2 scale | Margin, LEFTY1 mRNA: −6.56 log 2 scale | Margin, LEFTY2 mRNA: −3.12 log 2 scale | Margin, LIX1 mRNA: 4.3 log 2 scale | Margin, LOC152573 mRNA: −5.04 log 2 scale | Margin, LOC153469 mRNA: −4.72 log 2 scale | Margin, LOC387763 mRNA: 4.25 log 2 scale | Margin, LRAT mRNA: −4.97 log 2 scale | Margin, LRIG1 mRNA: −2.82 log 2 scale | Margin, LUM mRNA: 5.88 log 2 scale | Margin, MAL2 mRNA: −2.37 log 2 scale | Margin, MEGF10 mRNA: −3.14 log 2 scale | Margin, MEIS1 mRNA: 4.02 log 2 scale | Margin, MESP1 mRNA: 4.03 log 2 scale | Margin, MGC26963 mRNA: −4.02 log 2 scale | Margin, MSX1 mRNA: 4.28 log 2 scale | Margin, MSX2 mRNA: 5.43 log 2 scale | Margin, MYOCD mRNA: 4.49 log 2 scale | Margin, NANOG mRNA: −3.22 log 2 scale | Margin, NCRMS mRNA: −2.98 log 2 scale | Margin, NFE2L3 mRNA: −2.74 log 2 scale | Margin, NODAL mRNA: −2.93 log 2 scale | Margin, NOG mRNA: 4.37 log 2 scale | Margin, OLIG3 mRNA: −3.9 log 2 scale | Margin, OTX2 mRNA: −4.89 log 2 scale | Margin, PAPLN mRNA: −3.53 log 2 scale | Margin, PARG1 mRNA: 4.04 log 2 scale | Margin, PIPOX mRNA: −2.58 log 2 scale | Margin, POSTN mRNA: 5.83 log 2 scale | Margin, PPP2R2B mRNA: −3.6 log 2 scale | Margin, PRKD1 mRNA: 3.91 log 2 scale | Margin, PRSS12 mRNA: 4.09 log 2 scale | Margin, PTPRZ1 mRNA: −2.37 log 2 scale | Margin, RAM2 mRNA: −2.8 log 2 scale | Margin, RET mRNA: −2.97 log 2 scale | Margin, RGS4 mRNA: 3.85 log 2 scale | Margin, RGS5 mRNA: 4.46 log 2 scale | Margin, RGS13 mRNA: 4.42 log 2 scale | Margin, SEMA3C mRNA: 3.89 log 2 scale | Margin, SFRP1 mRNA: −2.36 log 2 scale | Margin, SFRP2 mRNA: −2.75 log 2 scale | Margin, SLC1A6 mRNA: −2.39 log 2 scale | Margin, SLC16A4 mRNA: 4 log 2 scale | Margin, SLC40A1 mRNA: 4.19 log 2 scale | Margin, SNAI2 mRNA: 4.92 log 2 scale | Margin, SOCS3 mRNA: 3.98 log 2 scale | Margin, SOX2 mRNA: −3.64 log 2 scale | Margin, SOX7 mRNA: 4.13 log 2 scale | Margin, SYNPO2 mRNA: 4.46 log 2 scale | Margin, TBX3 mRNA: 6.42 log 2 scale | Margin, TFAP2A mRNA: 4.98 log 2 scale | Margin, TFCP2L2 mRNA: 3.87 log 2 scale | Margin, TFCP2L4 mRNA: 4.92 log 2 scale | Margin, THBS2 mRNA: −3.73 log 2 scale | Margin, TIMP4 mRNA: −2.9 log 2 scale | Margin, TMEM46 mRNA: −3.57 log 2 scale | Margin, TOX mRNA: −3.03 log 2 scale | Margin, TRIM55 mRNA: 4.24 log 2 scale | Margin, TRPC4 mRNA: −2.52 log 2 scale | Margin, UGT8 mRNA: −3.57 log 2 scale | Margin, USP44 mRNA: −3.63 log 2 scale | Margin, UTF1 mRNA: −2.47 log 2 scale

Source: patent US8323971B2, “Differentiation of pluripotent cells into primary germ layer progenitors” (Cambridge Enterprise Limited, priority 2006, dated 2012)
